Assay results: ChEMBL document CHEMBL5584205 (Bioorg Med Chem Lett, 2024)
Calls of active or inactive are those of the source. The rule behind the calls is not given here.

Assays:
[1] = Inhibition of elastase release in fMLP/CB-induced human neutrophils by cell based assay; assay type: functional; details: Neutrophil
Neutrophil elastase = molecular target: T1, Neutrophil elastase (Homo sapiens, UniProt P08246); assay: Inhibition of human neutrophil elastase by enzymatic assay
T1 sequence (P08246 whole entry): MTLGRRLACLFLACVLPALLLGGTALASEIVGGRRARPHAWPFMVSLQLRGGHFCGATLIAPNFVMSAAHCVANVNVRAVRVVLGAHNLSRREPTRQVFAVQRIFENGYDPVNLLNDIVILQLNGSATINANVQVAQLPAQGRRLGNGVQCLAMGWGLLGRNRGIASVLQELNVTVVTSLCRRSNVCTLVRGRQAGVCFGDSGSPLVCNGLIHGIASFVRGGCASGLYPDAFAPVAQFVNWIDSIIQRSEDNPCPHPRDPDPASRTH

Neutrophil = assay: Inhibition of O2 generation in fMLP/CB-induced human neutrophils by cell based assay; assay type: functional
[2] = molecular target: T2, NAD-dependent protein deacetylase sirtuin-2 (Homo sapiens, UniProt Q8IXJ6); assay: Inhibition of SIRT2 (unknown origin) activity
T2 sequence (Q8IXJ6 whole entry): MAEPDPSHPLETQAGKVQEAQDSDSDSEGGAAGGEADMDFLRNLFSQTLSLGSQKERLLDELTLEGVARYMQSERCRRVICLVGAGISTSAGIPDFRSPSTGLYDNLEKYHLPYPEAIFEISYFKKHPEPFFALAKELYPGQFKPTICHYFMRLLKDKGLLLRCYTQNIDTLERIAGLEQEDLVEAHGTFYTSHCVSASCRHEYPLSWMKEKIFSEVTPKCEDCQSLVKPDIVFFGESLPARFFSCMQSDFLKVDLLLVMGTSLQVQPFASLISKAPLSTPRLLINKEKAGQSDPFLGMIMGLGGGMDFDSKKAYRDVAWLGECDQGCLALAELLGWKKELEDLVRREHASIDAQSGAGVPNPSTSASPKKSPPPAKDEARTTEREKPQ

Myeloblastin = molecular target: T3, Myeloblastin (Homo sapiens, UniProt P24158); assay: Inhibition of PR3 (unknown origin) activity
T3 sequence (P24158 whole entry): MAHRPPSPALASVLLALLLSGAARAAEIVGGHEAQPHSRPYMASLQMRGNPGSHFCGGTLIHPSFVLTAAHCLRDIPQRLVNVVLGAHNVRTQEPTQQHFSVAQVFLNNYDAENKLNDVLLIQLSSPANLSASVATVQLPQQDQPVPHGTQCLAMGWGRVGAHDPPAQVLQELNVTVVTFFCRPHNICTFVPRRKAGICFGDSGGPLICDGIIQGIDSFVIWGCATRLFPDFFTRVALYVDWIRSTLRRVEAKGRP

Homo sapiens = species: Homo sapiens; assay: Inhibition of CG (unknown origin)

Compound | IC50 [1] [µM] | IC50 (Neutrophil elastase) [µM] | IC50 (Neutrophil) [µM] | IC50 [2] [µM] | IC50 (Myeloblastin) [µM] | inhibition (Homo sapiens)
O=C(N[C@H](C(=O)O)c1ccccc1)c1ccccc1/N=C/c1c(O)ccc2ccccc12 | > 10 | > 50 | 2.5 |  |  | 
COC(=O)[C@H](NC(=O)c1ccccc1/N=C/c1ccccc1O)c1ccccc1 | 4.98 | > 50 | 4.36 |  |  | 
COC(=O)[C@H](Cc1ccccc1)NC(=O)c1ccccc1/N=C/c1c(O)ccc2ccccc12 | 2.09 | > 50 | 2.95 |  |  | 
COC(=O)[C@@H](NC(=O)c1ccccc1/N=C/c1ccccc1O)c1ccccc1 | 8.73 | > 50 | > 10 |  |  | 
CC(NC(=O)c1ccccc1NCc1c(O)ccc2ccccc12)c1ccccc1 (configuration not stated) | 6.44 | 26.2 | > 10 |  |  | 
COC(=O)[C@@H](Cc1ccccc1)NC(=O)c1ccccc1/N=C/c1c(O)ccc2ccccc12 | 1.59 | > 50 | 4.27 |  |  | 
C[C@@H](NC(=O)c1ccccc1/N=C/c1c(O)ccc2ccccc12)C1CCCCC1 | > 10 | > 50 | > 10 |  |  | 
CC(NC(=O)c1ccccc1/N=C/c1ccccc1O)c1ccccc1 (configuration not stated) | > 10 | > 50 | 6.07 |  |  | 
CC(NC(=O)c1ccccc1/N=C/c1c(O)ccc2ccccc12)c1ccccc1 (configuration not stated) [SIRTINOL] | 1.92 | 24.5 | > 10 |  |  | 

The remaining lines, values ahead:

IC50 [1] [µM] | IC50 (Neutrophil elastase) [µM] | IC50 (Neutrophil) [µM] | IC50 [2] [µM] | IC50 (Myeloblastin) [µM] | inhibition (Homo sapiens) | Compound
> 10 | 31.2 |  |  |  |  | COC(=O)[C@H](Cc1ccccc1)NC(=O)c1ccccc1/N=N/c1c(O)ccc2ccccc12
2.25 | 16.8 | 2.02 |  |  |  | O=C(N[C@H](C(=O)O)c1ccccc1)c1ccccc1/N=N/c1c(O)ccc2ccccc12
2.36 | 20.4 | 1.12 |  |  |  | O=C(N[C@@H](C(=O)O)c1ccccc1)c1ccccc1/N=N/c1c(O)ccc2ccccc12
> 10 | 19.3 |  |  |  |  | COC(=O)[C@@H](Cc1ccccc1)NC(=O)c1ccccc1/N=N/c1c(O)ccc2ccccc12
> 10 | 22.4 | > 10 |  |  |  | COC(=O)[C@@H](NC(=O)c1ncccc1/N=N/c1c(O)ccc2ccccc12)c1ccccc1
1.86 | 4.91 | 0.9 | 2.42 | 20.7 | inactive | O=C(N[C@H](C(=O)O)c1ccccc1)c1ncccc1/N=N/c1c(O)ccc2ccccc12
3.84 | > 50 | 3.56 |  |  |  | COC(=O)[C@@H](NC(=O)c1ccccc1/N=C/c1c(O)ccc2ccccc12)c1ccccc1
> 10 | 18.9 | > 10 |  |  |  | COC(=O)[C@H](NC(=O)c1ccccc1/N=N/c1c(O)ccc2ccccc12)c1ccccc1
1.07 | 21 | 1.31 |  |  |  | O=C(N[C@@H](Cc1ccccc1)C(=O)O)c1ccccc1/N=N/c1c(O)ccc2ccccc12
> 10 | 12.1 | > 10 |  |  |  | CC(NC(=O)c1ccccc1/N=N/c1c(O)ccc2ccccc12)c1ccccc1 (configuration not stated)
> 10 | 18 | > 10 |  |  |  | COC(=O)[C@@H](NC(=O)c1ccccc1/N=N/c1c(O)ccc2ccccc12)c1ccccc1
1.76 | 38.8 | 5.56 |  |  |  | COC(=O)[C@H](NC(=O)c1ccccc1/N=C/c1c(O)ccc2ccccc12)c1ccccc1
1.54 | 20.7 | 1.61 |  |  |  | O=C(N[C@H](Cc1ccccc1)C(=O)O)c1ccccc1/N=N/c1c(O)ccc2ccccc12
